Test results as given in PubChem BioAssay (NCI).
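Following 48 hours of exposure in 96-well plates, responses at five concentrations were used to interpolate endpoints linearly. The concentration for 50% growth inhibition is given as GI50. TGI: total growth inhibition.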

How the values were obtained:
Assay in all cases: DTP human tumour cell line panel, 48 h
NCI-H226 lung = tested on: NCI-H226 lung
NCI-H23 lung = tested on: NCI-H23 lung
NCI-H460 lung = tested on: NCI-H460 lung
NCI-H522 lung = tested on: NCI-H522 lung
NCI/ADR-RES ovarian = tested on: NCI/ADR-RES ovarian
OVCAR-3 ovarian = tested on: OVCAR-3 ovarian
OVCAR-4 ovarian = tested on: OVCAR-4 ovarian
OVCAR-5 ovarian = tested on: OVCAR-5 ovarian
PC-3 prostate = tested on: PC-3 prostate
SF-268 CNS = tested on: SF-268 CNS
SF-295 CNS = tested on: SF-295 CNS
SF-539 CNS = tested on: SF-539 CNS
SK-MEL-2 melanoma = tested on: SK-MEL-2 melanoma
SK-MEL-28 melanoma = tested on: SK-MEL-28 melanoma
SK-MEL-5 melanoma = tested on: SK-MEL-5 melanoma
SK-OV-3 ovarian = tested on: SK-OV-3 ovarian
SN12C renal = tested on: SN12C renal
SNB-75 CNS = tested on: SNB-75 CNS
SR leukemia = tested on: SR leukemia
SW-620 colon = tested on: SW-620 colon
T-47D breast = tested on: T-47D breast
TK-10 renal = tested on: TK-10 renal
U251 CNS = tested on: U251 CNS
UACC-257 melanoma = tested on: UACC-257 melanoma
UACC-62 melanoma = tested on: UACC-62 melanoma
UO-31 renal = tested on: UO-31 renal

With `CCN(CC)c1ccc(C(O)C2=CC(=O)c3ccccc3C2=O)cc1` (stereo unspecified) the TGI (NCI-H226 lung) was 4630 nM, the GI50 (NCI-H23 lung) was 1330 nM and the TGI (NCI-H23 lung) was 3020 nM. The GI50 (NCI-H460 lung) was 10800 nM, the TGI (NCI-H460 lung) was greater than 32400 nM and the GI50 (NCI-H522 lung) was 1790 nM. The TGI (NCI-H522 lung) was 4190 nM, the GI50 (NCI/ADR-RES ovarian) was greater than 32900 nM and the TGI (NCI/ADR-RES ovarian) was greater than 100000 nM. It also gave a GI50 (OVCAR-3 ovarian) of 1210 nM, a TGI (OVCAR-3 ovarian) of 2750 nM and a GI50 (OVCAR-4 ovarian) of 1270 nM. It also gave a TGI (OVCAR-4 ovarian) of 3100 nM, a GI50 (OVCAR-5 ovarian) of 1940 nM and a TGI (OVCAR-5 ovarian) of 3660 nM. For the same compound, the GI50 (PC-3 prostate) was 156 nM, the TGI (PC-3 prostate) was 959 nM and the GI50 (SF-268 CNS) was greater than 100000 nM. The TGI (SF-268 CNS) was greater than 100000 nM, the GI50 (SF-295 CNS) was 2230 nM and the TGI (SF-295 CNS) was 7450 nM. The GI50 (SF-539 CNS) was 2000 nM, the TGI (SF-539 CNS) was 4180 nM and the GI50 (SK-MEL-2 melanoma) was 1570 nM. For the same compound, the TGI (SK-MEL-2 melanoma) was 3710 nM, the GI50 (SK-MEL-28 melanoma) was 1210 nM and the TGI (SK-MEL-28 melanoma) was 2600 nM. It also gave a GI50 (SK-MEL-5 melanoma) of 914 nM, a TGI (SK-MEL-5 melanoma) of 2880 nM and a GI50 (SK-OV-3 ovarian) of 2660 nM. It also gave a TGI (SK-OV-3 ovarian) of 6820 nM, a GI50 (SN12C renal) of 1380 nM and a TGI (SN12C renal) of 4830 nM. The GI50 (SNB-75 CNS) was 1870 nM, the TGI (SNB-75 CNS) was 5570 nM and the GI50 (SR leukemia) was 694 nM. For the same compound, the TGI (SR leukemia) was 5260 nM, the GI50 (SW-620 colon) was 802 nM and the TGI (SW-620 colon) was greater than 100000 nM. The GI50 (T-47D breast) was 2690 nM, the TGI (T-47D breast) was greater than 100000 nM and the GI50 (TK-10 renal) was 1510 nM. The TGI (TK-10 renal) was 3160 nM, the GI50 (U251 CNS) was 1320 nM and the TGI (U251 CNS) was 7340 nM. It also gave a GI50 (UACC-257 melanoma) of 1960 nM, a TGI (UACC-257 melanoma) of 5020 nM and a GI50 (UACC-62 melanoma) of 1650 nM. The TGI (UACC-62 melanoma) was 3340 nM, the GI50 (UO-31 renal) was 2120 nM and the TGI (UO-31 renal) was 6250 nM.
